The values below come from publication PMC12114297 (Molecules, 2025).

Assay [1] has as its system Staphylococcus aureus ATCC 25923. Briefly: Agar well diffusion, S. aureus. In kind it is cell-based. To be noted: for Antibacterial activity in words: agar well diffusion, particularly S. aureus; for zone of inhibition at 1000 µg/mL: Staphylococcus aureus, ATCC25923, 60 µL of 1 mg/mL per well, ZOI including the well (6 mm), ± SD, n = 3, ciprofloxacin disk 5 μg, read-out: Staphylococcus aureus ATCC 25923 ZOI. The method, then: (§1) The antimicrobial potential of the synthesized coumarin–triazole–isatin hybrids was evaluated by the agar well diffusion method. The activity was tested against a variety of Gram-positive bacteria (Staphylococcus aureus ATCC 25923 and ATCC 902710, Staphylococcus epidermidis ATCC 12228, Streptococcus pyogenes ATCC 19615, Enterococcus faecalis ATCC 51299), Gram-negative bacteria (Escherichia coli ATCC 25922, Haemophilus influenzae ATCC 49766, Pseudomonas aeruginosa ATCC 27853, Salmonella typhi ATCC 14028, Neisseria meningitidis ATCC 13090, Neisseria gonorrhoeae ATCC 43069), and fungi (Candida albicans ATCC 60193 and ATCC 90028, Candida orientalis ATCC 6258). All microbial strains were obtained from Microbiologics (St.Cloud, MN, USA).
(§2) The test compounds were dissolved in DMSO to obtain stock solutions (1 mg/mL). Each compound (60 µL) was transferred into wells (6 mm in diameter) that were previously perforated into agar plates inoculated with microbial suspensions standardized to 0.5 McFarland for bacteria and 2 McFarland for Candida spp. DMSO was used as a negative control, while commercial antibiotic disks of novobiocin (5 μg), ampicillin (10 μg), and ciprofloxacin (5 μg) served as positive controls. Antimicrobial activity was assessed by measuring the diameter of zones of inhibition (ZOIs) in millimeters. All tests were conducted in triplicate.
A general note: A growth-free zone around the sample is the usual read-out of agar diffusion tests.

Assay [2] addresses T1, AChE from Electrophorus electricus (eeAChE) (Electrophorus electricus, UniProt O42275).
T1 construct: purchased Sigma-Aldrich (St. Louis, MO, USA)
Briefly: biochemical. To be noted: for inhibition at 20 µM: read-out: AChE % of Inhibition (Conc. 20 μM); for IC50: average ± standard error (n = 3).

In assay [3] the target is T2, BChE from equine serum (eqBuChE) (Equus caballus, UniProt P81908).
T2 construct: BChE from equine serum (BChE, EC 3.1.1.8); purchased Sigma-Aldrich (St. Louis, MO, USA); host or cells: equine serum
T2 sequence (P81908 whole entry): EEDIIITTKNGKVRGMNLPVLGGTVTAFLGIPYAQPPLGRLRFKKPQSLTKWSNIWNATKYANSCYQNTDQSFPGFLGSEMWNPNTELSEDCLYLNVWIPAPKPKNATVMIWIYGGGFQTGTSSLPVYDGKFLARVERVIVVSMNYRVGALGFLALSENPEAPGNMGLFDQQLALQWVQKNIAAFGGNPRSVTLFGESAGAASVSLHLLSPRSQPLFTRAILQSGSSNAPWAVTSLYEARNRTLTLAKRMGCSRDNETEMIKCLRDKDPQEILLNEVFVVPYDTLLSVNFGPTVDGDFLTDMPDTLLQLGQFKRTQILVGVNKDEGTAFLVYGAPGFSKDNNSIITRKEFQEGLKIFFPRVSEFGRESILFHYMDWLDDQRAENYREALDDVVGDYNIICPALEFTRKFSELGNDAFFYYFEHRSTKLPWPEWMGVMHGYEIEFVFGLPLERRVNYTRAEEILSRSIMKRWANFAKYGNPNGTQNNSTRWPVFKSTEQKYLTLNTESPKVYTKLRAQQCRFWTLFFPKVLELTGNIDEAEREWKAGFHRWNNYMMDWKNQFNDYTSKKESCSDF
Briefly: biochemical. To be noted: for BChE % of Inhibition (Conc. 20 μM) / inhibition at 20 µM / IC50: average ± standard error (n = 3); for inhibition at 20 µM: read-out: BChE % of Inhibition (Conc. 20 μM), 20 μM; for Selectivity BChE/AChE: ratio of AChE and BChE IC50. The procedure:
The in vitro cholinesterase inhibitory activity of the synthesized hybrid molecules was evaluated using a modified Ellman’s assay, optimized for 96-well microplate application. AChE from Electrophorus electricus (AChE, EC 3.1.1.7), BChE from equine serum (BChE, EC 3.1.1.8), acetylthiocholine iodide (ATCh), butyrylthiocholine iodide (BTCh), and 5,5′-dithiobis(2-nitrobenzoic acid) were purchased from Sigma-Aldrich (St. Louis, MO, USA) and used without further purification.
Test compounds were initially dissolved in dimethylsulphoxide (DMSO) to yield 1 mM stock solutions and subsequently diluted with 0.1 M phosphate buffer (pH 8.0) to prepare working solutions.
For the assay, 20 µL of compound solution was added to 140 µL of 0.1 M phosphate buffer (pH 8.0) in each well, followed by 20 µL of enzyme solution (AChE or BuChE, 100 U/L). After incubation at room temperature for 10 min, the reaction was initiated by adding 10 µL of DTNB (0.01 M) and 10 µL of substrate (ATCh or BTCh, 0.015 M). […] The percentage inhibition of enzyme activity was calculated using the following equation:(1) % Inhibition=Absorbance of control−Apsorbance of sample/Absorbance of control×100 where the absorbance of the control represents the maximum enzyme activity (without inhibition), and the absorbance of the sample corresponds to the enzyme activity in the presence of the tested compound. Appropriate blanks were included to account for background absorbance and to correct for any intrinsic color of the tested compounds.
All experiments were performed in triplicate.

Assay [4] relates to Staphylococcus epidermidis ATCC 12228. Put plainly: Agar well diffusion, S. epidermidis. In kind it is cell-based. The conditions noted are these: ATCC12228, read-out: Staphylococcus epidermidis ATCC 12228 ZOI, 60 µL of 1 mg/mL per well, ZOI including the well (6 mm), ± SD, n = 3, ciprofloxacin disk 5 μg. The procedure:
as §1, §2

T1 sequence (O42275 24-633): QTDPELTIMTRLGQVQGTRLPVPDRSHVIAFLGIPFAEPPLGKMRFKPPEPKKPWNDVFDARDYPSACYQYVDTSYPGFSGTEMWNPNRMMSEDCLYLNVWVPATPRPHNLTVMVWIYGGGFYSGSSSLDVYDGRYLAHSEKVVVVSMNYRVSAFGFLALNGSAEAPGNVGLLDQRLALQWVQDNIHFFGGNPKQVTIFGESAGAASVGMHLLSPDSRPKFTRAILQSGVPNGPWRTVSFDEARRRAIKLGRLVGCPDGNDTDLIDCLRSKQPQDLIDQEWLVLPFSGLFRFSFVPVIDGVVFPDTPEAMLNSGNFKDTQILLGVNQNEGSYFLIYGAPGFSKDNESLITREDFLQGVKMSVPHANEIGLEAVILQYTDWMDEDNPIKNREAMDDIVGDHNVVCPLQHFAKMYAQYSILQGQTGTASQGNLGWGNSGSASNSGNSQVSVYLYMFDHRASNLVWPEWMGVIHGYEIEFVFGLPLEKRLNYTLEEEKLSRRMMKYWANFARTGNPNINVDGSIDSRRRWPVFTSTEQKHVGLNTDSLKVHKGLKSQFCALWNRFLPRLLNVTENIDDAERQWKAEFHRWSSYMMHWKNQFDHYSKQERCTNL

Broadly, the inhibition is the share of the control response that was lost under treatment. As to `Cc1ccc2c(c1)C(=O)C(=O)N2Cc1cn(CCCOc2cc(=O)oc3ccccc23)nn1` [Compound 6b7, 5-methyl-1-((1-(3-((2-oxo-2H-chromen-4-yl)oxy)propyl)-1H-1,2,3-triazol-4-yl)methyl)indoline-2,3-dione], in assay [1], the “Antibacterial activity in words” value was “largely inactive”. For the same compound, the inhibition at 20 µM in assay [2] is 24.4 ± 1.27%. Moreover, the “BChE % of Inhibition (Conc. 20 μM)” value in assay [3] was found to be 4.88 ± 0.27%.

`O=C1C(=O)N(Cc2cn(CCOc3cc(=O)oc4ccccc34)nn2)c2ccc([N+](=O)[O-])cc21` [Compound 6a6, 5-nitro-1-((1-(2-((2-oxo-2H-chromen-4-yl)oxy)ethyl)-1H-1,2,3-triazol-4-yl)methyl)indoline-2,3-dione]: the “Antibacterial activity in words” value in assay [1] was “largely inactive”. For the same compound, the values for the inhibition at 20 µM in assay [2] and in assay [3] were 3.11 ± 0.44% and less than 6%, respectively. Further, in assay [3], the “BChE % of Inhibition (Conc. 20 μM)” value stood at 4.89 ± 0.74%.

In the case of `O=C1C(=O)N(Cc2cn(CCOc3cc(=O)oc4ccccc34)nn2)c2ccc(I)cc21` [Compound 6a5, 5-iodo-1-((1-(2-((2-oxo-2H-chromen-4-yl)oxy)ethyl)-1H-1,2,3-triazol-4-yl)methyl)indoline-2,3-dione], the “Antibacterial activity in words” value in assay [1] is “largely inactive”. Also, the inhibition at 20 µM worked out at 3.17 ± 0.26% in assay [2] and 40.9 ± 6.26% in assay [3].

A word on the IC50: it is the point on the concentration scale where inhibition reaches its midpoint. Read a high IC50 as lower potency. On to `O=C1C(=O)N(Cc2cn(CCCOc3cc(=O)oc4ccccc34)nn2)c2ccc(Cl)cc21` [Compound 6b3, 5-chloro-1-((1-(3-((2-oxo-2H-chromen-4-yl)oxy)propyl)-1H-1,2,3-triazol-4-yl)methyl)indoline-2,3-dione], for which, in assay [1], the zone of inhibition at 1000 µg/mL stood at 10.3 ± 1.15 mm and the “Antibacterial activity in words” value is “only modest antibacterial effect”. In assay [2], the inhibition at 20 µM is 31.5 ± 3.24%. Besides, in assay [4], the zone of inhibition at 1000 µg/mL came out at 11.2 ± 1.16 mm. For the same compound, in assay [3], the midpoint of inhibition, the IC50, lay at 11.3 ± 1.16 µM and the inhibition at 20 µM was 61.6 ± 7.24%.

On to `O=C1C(=O)N(Cc2cn(CCOc3cc(=O)oc4ccccc34)nn2)c2ccccc21` [Compound 6a1, 1-((1-(2-((2-oxo-2H-chromen-4-yl)oxy)ethyl)-1H-1,2,3-triazol-4-yl)methyl)indoline-2,3-dione], for which the “Antibacterial activity in words” value in assay [1] was “failed to exhibit significant activity”. In addition, the inhibition at 20 µM in assay [2] worked out at 29.3 ± 2.14%; in assay [3], 72.8 ± 2.17%. Besides, the zone of inhibition at 1000 µg/mL in assay [4] was 6.08 ± 1.19 mm. Half-maximal inhibition in assay [3] (IC50) required 6.08 ± 1.19 µM.

Take `O=C1C(=O)N(Cc2cn(CCOc3cc(=O)oc4ccccc34)nn2)c2ccc(Cl)cc21` [Compound 6a3, 5-chloro-1-((1-(2-((2-oxo-2H-chromen-4-yl)oxy)ethyl)-1H-1,2,3-triazol-4-yl)methyl)indoline-2,3-dione]: the inhibition at 20 µM in assay [2] was found to be 5.57 ± 1.19%. In assay [4], the zone of inhibition at 1000 µg/mL was determined as 10.6 ± 1.13 mm. In assay [3], half-maximal inhibition (IC50) required 10.6 ± 1.13 µM and the inhibition at 20 µM was 62.6 ± 6.19%.

For the compound `O=C1C(=O)N(Cc2cn(CCCCOc3cc(=O)oc4ccccc34)nn2)c2ccc(F)cc21` [Compound 6c2, 5-fluoro-1-((1-(4-((2-oxo-2H-chromen-4-yl)oxy)butyl)-1H-1,2,3-triazol-4-yl)methyl)indoline-2,3-dione], in assay [1], the zone of inhibition at 1000 µg/mL was determined as 12 ± 2.65 mm and the “Antibacterial activity in words” value is on record as “only weak antibacterial activity”. In assay [2], the IC50 was determined as 17.1 ± 1.65 µM and the inhibition at 20 µM was determined as 61 ± 3.49%. Further, in assay [4], the zone of inhibition at 1000 µg/mL amounted to 5.51 ± 1.38 mm. For the same compound, in assay [3], half-maximal inhibition (IC50) required 5.51 ± 1.38 µM, the “Selectivity BChE/AChE” value turned out to be 3.11 and the inhibition at 20 µM amounted to 79.1 ± 5.49%.

As for `O=C1C(=O)N(Cc2cn(CCCOc3cc(=O)oc4ccccc34)nn2)c2ccccc21` [Compound 6b1, 1-((1-(3-((2-oxo-2H-chromen-4-yl)oxy)propyl)-1H-1,2,3-triazol-4-yl)methyl)indoline-2,3-dione], in assay [2], inhibition was half-maximal at 18.2 ± 1.19 µM (IC50) and the inhibition at 20 µM was determined as 69.2 ± 4.27%. The zone of inhibition at 1000 µg/mL in assay [4] amounted to 8.52 ± 1.28 mm. Also, in assay [3], the IC50 was 8.52 ± 1.28 µM, the “Selectivity BChE/AChE” value stood at 2.13 and the inhibition at 20 µM was 69.2 ± 5.27%.

As for `O=C1C(=O)N(Cc2cn(CCCOc3cc(=O)oc4ccccc34)nn2)c2ccc([N+](=O)[O-])cc21` [Compound 6b6, 5-nitro-1-((1-(3-((2-oxo-2H-chromen-4-yl)oxy)propyl)-1H-1,2,3-triazol-4-yl)methyl)indoline-2,3-dione], the “Antibacterial activity in words” value in assay [1] is “largely inactive”. Besides, the inhibition at 20 µM in assay [2] came out at 17.9 ± 1.91%. Moreover, in assay [3], the “BChE % of Inhibition (Conc. 20 μM)” value is reported as 5.89 ± 1.91% and the inhibition at 20 µM was less than 6%.

In the case of `Cc1ccc2c(c1)C(=O)C(=O)N2Cc1cn(CCCCOc2cc(=O)oc3ccccc23)nn1` [Compound 6c7, 5-methyl-1-((1-(4-((2-oxo-2H-chromen-4-yl)oxy)butyl)-1H-1,2,3-triazol-4-yl)methyl)indoline-2,3-dione], the “Antibacterial activity in words” value in assay [1] was “largely inactive”. Also, the inhibition at 20 µM in assay [2] is 12.1 ± 1.26%. In assay [3], the “BChE % of Inhibition (Conc. 20 μM)” value turned out to be 10.32 ± 1.53% and the inhibition at 20 µM is less than 11%.

For the compound `O=C1C(=O)N(Cc2cn(CCCCOc3cc(=O)oc4ccccc34)nn2)c2ccc(Cl)cc21` [Compound 6c3, 5-chloro-1-((1-(4-((2-oxo-2H-chromen-4-yl)oxy)butyl)-1H-1,2,3-triazol-4-yl)methyl)indoline-2,3-dione], in assay [1], the zone of inhibition at 1000 µg/mL turned out to be 10.7 ± 3.06 mm and the “Antibacterial activity in words” value is reported as “only weak antibacterial activity”. Besides, the inhibition at 20 µM in assay [2] amounted to 44.2 ± 3.14%. Also, the inhibition at 20 µM in assay [3] came out at 5.19 ± 1.14%.

As for `Cc1ccc2c(c1)C(=O)C(=O)N2Cc1cn(CCOc2cc(=O)oc3ccccc23)nn1` [Compound 6a7, 5-methyl-1-((1-(2-((2-oxo-2H-chromen-4-yl)oxy)ethyl)-1H-1,2,3-triazol-4-yl)methyl)indoline-2,3-dione], the “Antibacterial activity in words” value in assay [1] was “largely inactive”. Further, the inhibition at 20 µM in assay [2] is 22.8 ± 3.66%. The “BChE % of Inhibition (Conc. 20 μM)” value in assay [3] is on record as 2.91 ± 0.15%.

`O=C1C(=O)N(Cc2cn(CCCCOc3cc(=O)oc4ccccc34)nn2)c2ccc(I)cc21` [Compound 6c5, 5-iodo-1-((1-(4-((2-oxo-2H-chromen-4-yl)oxy)butyl)-1H-1,2,3-triazol-4-yl)methyl)indoline-2,3-dione]: the “Antibacterial activity in words” value in assay [1] is “largely inactive”. For the same compound, the inhibition at 20 µM in assay [2] was 11.2 ± 1.64%; in assay [3], 22.9 ± 1.64%.

In the case of `COc1cc2c(cc1OC)C(=O)C(CC1CCN(Cc3ccccc3)CC1)C2` (stereo not drawn) [Donepezil, donepezil, reference compound], the inhibition at 20 µM in assay [3] came to 74.2 ± 6.17%.

On to `O=C1C(=O)N(Cc2cn(CCCCOc3cc(=O)oc4ccccc34)nn2)c2ccc([N+](=O)[O-])cc21` [Compound 6c6, 5-nitro-1-((1-(4-((2-oxo-2H-chromen-4-yl)oxy)butyl)-1H-1,2,3-triazol-4-yl)methyl)indoline-2,3-dione], for which the “Antibacterial activity in words” value in assay [1] is “largely inactive”. In addition, in assay [2], the inhibition at 20 µM turned out to be 19 ± 1.96%. Further, in assay [3], the “BChE % of Inhibition (Conc. 20 μM)” value worked out at 4.15 ± 0.54% and the inhibition at 20 µM is less than 6%.

As for `O=C1C(=O)N(Cc2cn(CCCCOc3cc(=O)oc4ccccc34)nn2)c2ccc(Br)cc21` [Compound 6c4, 5-bromo-1-((1-(4-((2-oxo-2H-chromen-4-yl)oxy)butyl)-1H-1,2,3-triazol-4-yl)methyl)indoline-2,3-dione], in assay [1], the zone of inhibition at 1000 µg/mL lay within 12 to 20 mm and the “Antibacterial activity in words” value was “only weak antibacterial activity”. Besides, in assay [2], the inhibition at 20 µM stood at 9.84 ± 1.19%. Besides, the inhibition at 20 µM in assay [3] stood at 27.1 ± 2.19%.
